Values quoted from earlier work in patent US4782898A, “Determining residual oil saturation using carbon 14 labeled carbon dioxide” (priority 1986, dated 1988).

SMILES | distribution coefficient, Ki (ratio of concentration of tracer in the oil phase to that in the water phase)
O=C=O [CO2, carbon dioxide] | about 2
O=[14C]=O [carbon 14 labeled CO2] | about 2
